This passage reports EC50, EC90 and CC50 results from PubChem BioAssay AID806 (SRMLSC, 2007).

The term EC50 denotes the midpoint of the concentration-response curve. As a reminder, the EC90 is the concentration at which the effect reaches the 90% level. Read a high EC90 as a need for much substance. In general, CC50 refers to the concentration at which the toxic effect on the cells reaches its halfway point. Lower therefore signals harm at low concentration.

Activity calls are given as the source filed them. The rule behind the calls is not given here.

The test system of the assay is virus-infected cells, CPE inhibition, dose response. The experiment in a line: PubChem AID 806. The following applies: for EC90: measured here: EC90 CPE inhibition; for CC50: measured here: cytotoxicity, cell viability IC50.

On to `Cc1ccc(/C=C/C(=O)c2c(C)cc(C)[nH]c2=O)cc1`, for which the EC50 was > 60 µM (inactive), the EC90 is > 60 µM and the CC50 was > 60 µM.
`O=C(c1ccco1)N1CCn2c1nc1ccccc12`: the EC50 was > 60 µM (inactive), the EC90 was > 60 µM and the CC50 was > 60 µM.
Turning to `Cc1cc(=O)n2c(-c3ccccc3C)n[nH]c2n1`, the EC50 was > 60 µM (inactive), the EC90 is > 60 µM and the 50% cytotoxic concentration (CC50) was > 60 µM.
`COC(=O)CSc1nnc(-c2cccnc2)o1`: the EC50 was > 60 µM (inactive), the EC90 is > 60 µM and the CC50 is > 60 µM.
In the case of `COc1ccccc1Cn1c(=O)c2ccccc2n2c(SCc3csc(C)n3)nnc12`, the EC50 was > 60 µM (inactive), the concentration for an effect of 90% (EC90) was > 60 µM and the half-maximal cytotoxic concentration (CC50) is > 60 µM.
Consider `CCCCCn1c(=O)c(C(=O)Nc2c(C)n(C)n(-c3ccccc3)c2=O)c(O)c2ccccc21`, for which the EC50 is > 60 µM (inactive), the EC90 was > 60 µM and the 50% cytotoxic concentration (CC50) is > 60 µM.
Turning to `Cc1c(NC(=O)CSc2nnc3sc4ccccc4n23)c(=O)n(-c2ccccc2)n1C`, the EC50 is > 60 µM (inactive), the EC90 is > 60 µM and the CC50 is > 60 µM.
For the compound `Cc1cccc(NC(=O)C2CC(=O)OC23CCCCC3)c1` (stereo unspecified), the EC50 was > 60 µM (inactive), the EC90 is > 60 µM and the CC50 is > 60 µM.
Turning to `O=C(C1CCCCN1S(=O)(=O)c1ccccc1)N1CCN(Cc2ccccc2)CC1` (stereo unspecified), the EC50 is > 60 µM (inactive), the EC90 was > 60 µM and the CC50 is > 60 µM.
`C=CCSc1nnc(-c2ccc(Cl)cc2Cl)o1`: the EC50 is 59.2 µM (inactive), the EC90 is > 60 µM and the cytotoxic concentration (CC50) is > 60 µM.
Turning to `CCOC(=O)/C=C1\SCC(=O)N1CC(=O)Nc1ccc(OC)c(OC)c1`, the EC50 is > 60 µM (inactive), the 90% effect concentration (EC90) was > 60 µM and the 50% cytotoxic concentration (CC50) is > 60 µM.
Take `O=C(Nc1c(-c2ccccc2)nc2sccn12)c1ccccc1`: the EC50 was 0.634 µM, the EC90 was > 60 µM and the CC50 was > 60 µM.
Take `O=C(COc1ccccc1)Nc1ccc(-c2nnc(-c3ccco3)o2)cc1`: the EC50 was 52 µM (inactive), the 90% effect concentration (EC90) is > 60 µM and the 50% cytotoxic concentration (CC50) was > 60 µM.
With `CC(=O)Nc1ccc(Nc2ncnc3c2cnn3-c2cccc(C)c2)cc1`, the EC50 was > 60 µM (inactive), the EC90 was > 60 µM and the CC50 is > 60 µM.
With `COCCNC(=O)C(c1ccccc1)N(C(=O)Cn1nnc2ccccc21)c1cccnc1` (stereo unspecified), the EC50 is > 60 µM (inactive), the EC90 was > 60 µM and the CC50 was > 60 µM.
Take `O=C(CSc1ccc2nnc(-c3cccc(F)c3)n2n1)NCc1ccco1`: the EC50 is > 60 µM (inactive), the concentration for an effect of 90% (EC90) is > 60 µM and the 50% cytotoxic concentration (CC50) was > 60 µM.
With `Cc1cccc(-n2ncc3c(N4CCCc5ccccc54)ncnc32)c1`, the EC50 is > 60 µM (inactive), the 90% effect concentration (EC90) was > 60 µM and the CC50 was > 60 µM.
For the compound `CCN(CC)C(=O)CSc1nnc2sc3ccccc3n12`, the EC50 is > 60 µM (inactive), the EC90 is > 60 µM and the CC50 is > 60 µM.
On to `Cc1nc2nc(-c3ccccc3)[nH]n2c(=O)c1Cc1ccccc1`, for which the EC50 was > 60 µM (inactive), the EC90 is > 60 µM and the CC50 was > 60 µM.
`COc1ccc(NC(=O)c2cc3ccccc3o2)cc1`: the EC50 was > 60 µM (inactive), the EC90 was > 60 µM and the CC50 is > 60 µM.
As to `O=C(c1cc(-c2ccc(Cl)cc2)n(-c2ccc(Cl)cc2)n1)N1CCOCC1`, the EC50 is > 60 µM (inactive), the EC90 is > 60 µM and the CC50 came to 4.34 µM.
Regarding `CC1(C)Cc2c(c(N3CCOCC3)nc3sc4c(=O)[nH]cnc4c23)CS1`, the EC50 was > 60 µM (inactive), the 90% effect concentration (EC90) was > 60 µM and the CC50 is > 60 µM.
As to `CC1CCCN(C(=O)Nc2cccc(NC(=O)N3CCCC(C)C3C)c2)C1C` (stereo unspecified), the EC50 was > 60 µM (inactive), the EC90 was > 60 µM and the half-maximal cytotoxic concentration (CC50) was > 60 µM.
Regarding `O=C(c1cc(-c2ccc(Cl)cc2)n(-c2ccc(Cl)cc2Cl)n1)N1CCOCC1`, the EC50 is > 60 µM (inactive), the EC90 was > 60 µM and the CC50 is > 60 µM.
For the compound `Cc1c(C(=O)Nc2ccncc2)oc2ccccc12`, the EC50 was > 60 µM (inactive), the EC90 is > 60 µM and the 50% cytotoxic concentration (CC50) was > 60 µM.
`COC(=O)Cc1c(C)nc2nc(-c3ccccc3)[nH]n2c1=O`: the EC50 was > 60 µM (inactive), the 90% effect concentration (EC90) is > 60 µM and the half-maximal cytotoxic concentration (CC50) is > 60 µM.
`CCc1ccc(NC(=O)CCS(=O)(=O)c2cccc3nsnc23)cc1`: the EC50 is > 60 µM (inactive), the EC90 was > 60 µM and the CC50 is > 60 µM.
As to `CCCN(CCC)C(=O)CCS(=O)(=O)c1cccc2nsnc12`, the EC50 was > 60 µM (inactive), the EC90 is > 60 µM and the CC50 was > 60 µM.
On to `Cc1cc2oc(C(=O)Nc3cccnc3)c(C)c2cc1C`, for which the EC50 is > 60 µM (inactive), the concentration for an effect of 90% (EC90) is > 60 µM and the CC50 is > 60 µM.
On to `CCCCN(C(=O)Cn1nnc2ccccc21)C(C(=O)NCCOC)c1ccccc1` (stereo unspecified), for which the EC50 was > 60 µM (inactive), the 90% effect concentration (EC90) was > 60 µM and the half-maximal cytotoxic concentration (CC50) was > 60 µM.
For the compound `CCCCN(C(=O)Cn1nnc2ccccc21)C(C(=O)NCc1ccco1)c1ccncc1` (stereo unspecified), the EC50 was > 60 µM (inactive), the 90% effect concentration (EC90) was > 60 µM and the CC50 was > 60 µM.
For `Cc1cc2cc(CNC(=O)c3ccc(S(=O)(=O)N(C)C)cc3)ccc2n1C`, the EC50 was > 60 µM (inactive), the EC90 was > 60 µM and the CC50 was > 60 µM.
Turning to `COc1ccccc1CNC(=O)c1ccc(S(=O)(=O)N(C)C)cc1`, the EC50 is > 60 µM (inactive), the EC90 was > 60 µM and the CC50 was > 60 µM.
For the compound `O=c1[nH]c2ccccc2n1Cc1ccccc1`, the EC50 is > 60 µM (inactive), the EC90 was > 60 µM and the CC50 was > 60 µM.
For the compound `O=C(Nc1cccc2ncccc12)c1cc2ccccc2o1`, the EC50 is > 60 µM (inactive), the EC90 was > 60 µM and the CC50 was > 60 µM.
Regarding `Cc1c(C(=O)Nc2ccc(Cl)cn2)oc2ccccc12`, the EC50 is > 60 µM (inactive), the EC90 is > 60 µM and the CC50 was > 60 µM.
In the case of `O=C(O)CCc1nnc2n(Cc3ccc(F)cc3)c(=O)c3ccccc3n12`, the EC50 is > 60 µM (inactive), the EC90 was > 60 µM and the 50% cytotoxic concentration (CC50) was > 60 µM.
Consider `CN(C)CCNc1ncnc2c1sc1nc(N3CCOCC3)c3c(c12)CC(C)(C)SC3`, for which the EC50 is > 60 µM (inactive), the concentration for an effect of 90% (EC90) is > 60 µM and the CC50 came out at 16.3 µM.
In the same order, the values of `CCOC(=O)c1cccc(NC(=O)CCS(=O)(=O)c2cccc3nsnc23)c1` are > 60 µM (inactive), > 60 µM and > 60 µM.
In the same order, the values of `NC(=O)c1c(NC(=O)CSc2nnc(Cc3ccccc3)n2Cc2ccco2)sc2c1CCC2` are > 60 µM (inactive), > 60 µM and > 60 µM.
For the compound `COc1ccc(-c2csc(NC(=O)C3CCCCN3S(=O)(=O)c3ccccc3)n2)cc1` (stereo unspecified), the EC50 was > 60 µM (inactive), the concentration for an effect of 90% (EC90) was > 60 µM and the 50% cytotoxic concentration (CC50) was > 60 µM.
Take `O=C(CSc1nnc2sc3ccccc3n12)NCc1ccco1`: the 90% effect concentration (EC90) was > 60 µM and the half-maximal cytotoxic concentration (CC50) was > 60 µM.
As to `O=C(Nc1ccccn1)c1cc2ccccc2o1`, the EC50 is > 60 µM (inactive), the concentration for an effect of 90% (EC90) was > 60 µM and the CC50 came to 23.9 µM.
In the same order, the values of `CCOC(=O)/C=C1\SCC(=O)N1CC(=O)NC1CCCCC1` are > 60 µM (inactive), > 60 µM and > 60 µM.
On to `COc1ccccc1CNC(=O)c1c(O)c2cc(OC)c(OC)cc2[nH]c1=O`, for which the EC50 is > 60 µM (inactive), the concentration for an effect of 90% (EC90) is > 60 µM and the CC50 is > 60 µM.
As to `CCOC(=O)/C=C1\SCC(=O)N1CC(=O)Nc1ccc2c(c1)CCC2`, the EC50 was > 60 µM (inactive), the concentration for an effect of 90% (EC90) is > 60 µM and the cytotoxic concentration (CC50) is > 60 µM.
Take `COc1ccc(-c2nc3nc(C)c(Cc4ccccc4)c(=O)n3[nH]2)cc1`: the EC50 is > 60 µM (inactive), the 90% effect concentration (EC90) is > 60 µM and the cytotoxic concentration (CC50) was > 60 µM.
As for `O=c1[nH]c2ccccc2n1Cc1ccc(Cl)cc1`, the EC50 was > 60 µM (inactive), the EC90 is > 60 µM and the 50% cytotoxic concentration (CC50) is > 60 µM.
Consider `CC1Cc2ccccc2N1C(=O)CSc1nnc2sc3ccccc3n12` (stereo unspecified), for which the EC50 was > 60 µM (inactive), the EC90 is > 60 µM and the half-maximal cytotoxic concentration (CC50) was 10.1 µM.
In the same order, the values of `CCCOc1ccc(C(=O)C(CN2CCOCC2)c2ccccc2)cc1` (stereo unspecified) are > 60 µM (inactive), > 60 µM and > 60 µM.
In the case of `CCC(C)(C)NC(=O)C(c1cccnc1)N(CCOC)C(=O)Cn1nnc2ccccc21` (stereo unspecified), the EC50 is > 60 µM (inactive), the concentration for an effect of 90% (EC90) was > 60 µM and the CC50 is > 60 µM.
With `O=C(NCc1cccnc1)C1CCCCN1S(=O)(=O)c1ccc(F)cc1` (stereo unspecified), the EC50 was > 60 µM (inactive), the concentration for an effect of 90% (EC90) is > 60 µM and the half-maximal cytotoxic concentration (CC50) was > 60 µM.
Regarding `Cc1ccc(-c2nnc3ccc(SCC(=O)NCc4ccco4)nn23)cc1`, the EC50 was > 60 µM (inactive), the EC90 is > 60 µM and the half-maximal cytotoxic concentration (CC50) was > 60 µM.
`COc1ccc2c(c1)CCc1c(C(=O)N3CCCC3)noc1-2`: the EC50 is > 60 µM (inactive), the 90% effect concentration (EC90) was > 60 µM and the 50% cytotoxic concentration (CC50) was > 60 µM.
